Where “and” joins values, the source holds several entries; their conditions need not be identical. Identical values can stand only once. Marks after values point to notes of the source that are not given here.
Legend:
[1] = tested on: carrageenin-induced rat paw edema; assay: Inhibition of the carrageenin-induced rat paw edema; assay type: in vivo, Fisher 344 rats; details: 0.0057 mmol/kg body weight i.p., 3.5 h after carrageenin
Procedure: For the estimation of anti-inflammatory potential of the tested compounds the rat carrageenin induced paw edema assay was employed as a model for acute inflammation. Indomethacin, as a reference drug, and our compounds were administered intraperitoneally in order to ensure systemic response via fast bioavailability, while carrageenin’s intradermal administration, as inflammatory agent, aimed to local response. The development of the edema induced by carrageenin has been described as a biphasic event. The early phase of the inflammatory response, lasting 0.5–1.5 h, is chiefly mediated by histamine and serotonin release inducing hyperalgesia, swelling and redness, while the later phase, lasting 3–6 h, is sustained presumably by prostaglandin release. This model reliably predicts the anti-inflammatory efficacy of the NSAIDs during the second phase, since non-steroidal anti-inflammatory drugs (NSAIDs) present weak activity in the first phase. Therefore, using this protocol we could evaluate our compounds as potential anti-inflammatory agents, as a result of inhibition of prostaglandin amplification.
The animals (Fisher 344 rats), which have been bred in our laboratory, were housed under standard conditions and received a diet of commercial food pellets and water ad libitum during the maintenance but they were entirely fasted during the experiment period. Both sexes were used while females pregnant were excluded. Each group was composed of 6–15 animals. Our studies were in accordance with recognized guidelines on animal experimentation (guidelines for the care and use of laboratory animals published by the Greek Government 160/1991, based on EU regulations 86/609). […]
Edema was induced in the right hind paw of the rats by the intradermal injection of 0.1 mL 2% carrageenin in water we followed our previous published method. […] The change in paw weight was compared with that in control animals (treated with water) and expressed as a percent inhibition of the edema CPE % values. […]

[2] = tested on: acetic acid induced writhing; assay: Anti-nociception, acetic acid writhing test; assay type: in vivo, Fisher 344 rats; details: 0.0057 mmol/kg body weight i.p., 0.6% acetic acid
Description: The animals (Fisher 344 rats), which have been bred in our laboratory, were housed under standard conditions and received a diet of commercial food pellets and water ad libitum during the maintenance but they were entirely fasted during the experiment period. Both sexes were used while females pregnant were excluded. Each group was composed of 6–15 animals. Our studies were in accordance with recognized guidelines on animal experimentation (guidelines for the care and use of laboratory animals published by the Greek Government 160/1991, based on EU regulations 86/609). Rats were kept in the Centre of the School of Veterinary Medicine (EL54 BIO42), Aristotle University of Thessaloniki, which is registered by the official state veterinary authorities (presidential degree 56/2013, in harmonization with the European Directive 2010/63/EEC). The experimental protocols were approved by the Animal Ethics Committee of the Prefecture of Central Macedonia (no. 270079/2500). In order to study the analgesic activity of the tested compound, pain is provoked with acetic acid. Three groups for each compound were used with five animals per group. We followed our previous presented method. After treatment with the tested compounds (0.0057 mmol/kg body weight; intraperitoneally) in group 1, 2nd group was used as a positive control (aspirin; 0.0057 mmol/kg body weight i.p.) and another group (3rd) served as the control in which saline was administered (negative control). After 30 min, 0.6% acetic acid (1 mL/kg body weight) was injected i.p. The number of writhes was recorded for each animal every 5 min during a subsequent 30 min period.

[3] = target: mushroom tyrosinase (Agaricus bisporus, UniProt C7FF04); assay: Tyrosinase inhibition assay; assay type: biochemical; details: L-Dopa substrate, read-out: ΤyrI% 100 μM (inhibition of mushroom tyrosinase)
Procedure: (§1) For the in vitro assays, a stock solution (1% DMSO in the appropriate buffer with the tested compound diluted under sonification) was prepared from which several dilutions were made with the appropriate buffer.

[4] = target: T1, soybean lipoxygenase (Glycine max, UniProt P08170); assay: Soybean lipoxygenase inhibition study; assay type: biochemical; details: for IC50: soybean lipoxygenase, sodium linoleate 0.1 mM, read-out: LOX IC50; for inhibition at 100 µM: read-out: LOX % inhibition 100 μM
T1 construct: purchased Sigma Chemical, Co. (St. Louis, MO, USA)
T1 sequence (P08170 1-839): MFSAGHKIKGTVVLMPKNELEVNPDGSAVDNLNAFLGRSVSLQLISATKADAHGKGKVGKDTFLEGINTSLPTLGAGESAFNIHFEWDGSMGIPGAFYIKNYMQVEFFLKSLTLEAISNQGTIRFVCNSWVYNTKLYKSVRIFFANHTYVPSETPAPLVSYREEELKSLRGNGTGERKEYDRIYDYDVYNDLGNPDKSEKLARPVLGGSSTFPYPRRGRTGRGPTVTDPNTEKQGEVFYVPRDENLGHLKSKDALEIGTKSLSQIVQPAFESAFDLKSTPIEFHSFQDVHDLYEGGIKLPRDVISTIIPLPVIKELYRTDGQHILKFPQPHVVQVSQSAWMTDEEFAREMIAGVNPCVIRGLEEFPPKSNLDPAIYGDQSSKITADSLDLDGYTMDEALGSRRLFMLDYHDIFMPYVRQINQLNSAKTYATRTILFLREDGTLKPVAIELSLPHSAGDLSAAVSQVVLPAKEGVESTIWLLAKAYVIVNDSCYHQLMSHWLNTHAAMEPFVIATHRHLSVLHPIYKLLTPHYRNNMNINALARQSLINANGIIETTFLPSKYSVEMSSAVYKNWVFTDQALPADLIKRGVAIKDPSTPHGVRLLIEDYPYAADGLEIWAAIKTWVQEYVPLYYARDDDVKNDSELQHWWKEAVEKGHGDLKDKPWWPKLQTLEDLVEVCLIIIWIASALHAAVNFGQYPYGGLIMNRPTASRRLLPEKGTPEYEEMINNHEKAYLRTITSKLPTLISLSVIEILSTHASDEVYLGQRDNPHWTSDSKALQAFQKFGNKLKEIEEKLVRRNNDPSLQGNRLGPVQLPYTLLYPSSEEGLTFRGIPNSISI
Procedure: For the in vitro assays, a stock solution (1% DMSO in the appropriate buffer with the tested compound diluted under sonification) was prepared from which several dilutions were made with the appropriate buffer. DMSO solution of the tested compound (stock solutions 10 mM) was incubated with sodium linoleate (0.1 mM) and 0.2 mL of soybean lipoxygenase solution (1/9 × 10^−4 w/v in saline) at room temperature. The test follows our previous published methods. […] Several concentrations were used to determine the IC50.

[5] = Inhibition of linoleic acid lipid peroxidation (AAPH)
Description: Azo compounds, like AAPH, generating free radicals through spontaneous thermal decomposition are useful for in vitro studies of free radical production. Production of conjugated diene hydroperoxide by oxidation of sodium linoleate in an aqueous solution is monitored at 234 nm. This assay can be used to follow oxidative changes and to understand the contribution of each tested compound. […] It seems that the presence of moiety Ar (Scheme 1) is mainly correlated with the antioxidant result. The nature of the heteroatom O/S in Ar substituent in the 5-membered oxazolone ring (compounds 2c and 2e) influences the biological response. The replacement of the thienyl group in 2c by a furyl group (2e) leads to a 31% decrease of the antioxidant ability.
as §1, with “Each in vitro experiment was performed at least in triplicate and the standard deviation of absorbance was less than 10% of the mean. For” for “For”
The AAPH-induced oxidation of linoleic acid measures the ability of an antioxidant to prevent oxidation of linoleic acid sodium salt induced by alkylperoxyl radicals, generated from the water soluble azo compound 2,2′-azobis(2-amidinopropane) dihydrochloride (AAPH). The assay was performed according to our previous publications. Trolox was used as reference compound.

[6] = target: T2, trypsin (Bos taurus, UniProt P00760); assay: Inhibition of trypsin induced proteolysis; assay type: biochemical
T2 sequence (P00760 24-246): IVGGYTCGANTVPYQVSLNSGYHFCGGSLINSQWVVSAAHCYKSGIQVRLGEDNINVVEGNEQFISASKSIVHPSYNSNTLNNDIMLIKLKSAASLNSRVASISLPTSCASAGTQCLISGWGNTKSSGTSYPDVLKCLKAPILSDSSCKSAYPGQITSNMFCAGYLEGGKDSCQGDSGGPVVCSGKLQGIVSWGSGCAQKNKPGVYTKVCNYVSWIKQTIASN
Procedure: as §1, with “Each in vitro experiment was performed at least in triplicate and the standard deviation of absorbance was less than 10% of the mean. For” for “For”
The tested compounds (10 µL) were dissolved in DMSO (final concentration 100 µM), with phosphate buffer (pH = 7.6) to give 0.005–0.1 mM solutions, and 100 µL trypsin (1 mg/10 mL) were preincubated at 37 °C for 30 min. Then, 200 µL of albumin (6 mg in 3 mL of distilled water) was added and incubated again at 37 °C for 24 h. After the incubation 1 mL trichloroacetic acid (5% w/w) was added to terminate the reaction. The mixture is centrifugated, the water layer is collected and monitored at 280 nm.

mushroom tyrosinase, sequence (G1K3P4 entry or part of it): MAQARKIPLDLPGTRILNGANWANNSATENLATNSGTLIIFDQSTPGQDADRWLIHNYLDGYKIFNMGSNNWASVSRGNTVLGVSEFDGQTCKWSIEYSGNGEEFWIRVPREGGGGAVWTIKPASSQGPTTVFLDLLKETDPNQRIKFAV
mushroom tyrosinase, sequence (C7FF04 1-392): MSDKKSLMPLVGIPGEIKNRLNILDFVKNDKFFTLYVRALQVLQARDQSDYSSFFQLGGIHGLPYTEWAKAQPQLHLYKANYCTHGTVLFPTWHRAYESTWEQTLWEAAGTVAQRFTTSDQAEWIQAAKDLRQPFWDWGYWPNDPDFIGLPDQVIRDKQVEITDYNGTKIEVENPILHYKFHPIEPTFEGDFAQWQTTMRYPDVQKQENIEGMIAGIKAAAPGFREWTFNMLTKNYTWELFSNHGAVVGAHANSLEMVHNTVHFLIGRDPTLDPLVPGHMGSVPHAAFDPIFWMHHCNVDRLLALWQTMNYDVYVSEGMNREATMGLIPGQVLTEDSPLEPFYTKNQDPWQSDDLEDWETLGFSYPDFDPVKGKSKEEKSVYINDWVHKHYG

Row | melting point | inhibition at 100 µM [3] | IC50 [4] | inhibition at 100 µM [4] | Iptr% 10 µM (% trypsin inhibition) [6] | Structure (SMILES) | CPE (%) inhibition of carrageenin-induced rat paw edema [1] | Writhing Inhibition (%) [2] | AAPH% 100 µM (anti-lipid peroxidation) [5]
1 | 292 to 294 °C | 42% | 41 µM | – | – | O=C(N/C(=C\c1cccs1)C(=O)N1CCN(C(=O)/C(=C/c2cccs2)NC(=O)c2ccccc2)CC1)c1ccccc1 [Compound 4c, N,N′-((1Z,1′Z)-piperazine-1,4-diylbis(3-oxo-1-(thiophen-2-yl)prop-1-ene-3,2-diyl))bisbenzamide] | 56 ** % and 56% | 58% | 93%
2 | 135 to 138 °C | – | 100 µM | < 50% | no | O=C(N/C(=C\c1ccccc1)C(=O)N1CCOCC1)c1ccccc1 [Compound 3a, (Z)-N-(3-morpholino-3-oxo-1-phenylprop-1-en-2-yl)benzamide] | – | – | 69%
3 | 265 to 268 °C | 33% | – | 36% | – | O=C(N/C(=C\c1ccccc1)C(=O)N1CCN(C(=O)/C(=C/c2ccccc2)NC(=O)c2ccccc2)CC1)c1ccccc1 [Compound 4a, N,N′-((1Z,1′Z)-piperazine-1,4-diylbis(3-oxo-1-phenylprop-1-ene-3,2-diyl))bisbenzamide] | 44 * % and 44% | 32% | 82%
4 | – | – | – | – | – | CC(=O)Oc1ccccc1C(=O)O [Aspirin, aspirin, reference compound] | – | 77% | –
